Test results from patent US5277897A, “In vivo enhancement of cellular accumulation of lipophilic cationic organometallic compounds by reduction of intramembrane potential” (Brigham and Women's Hospital, priority 1992, dated 1994).

Tested on: cultured chick heart cells
Experiment: Influence of TPB and CCCP on (membrane potential-independent) accumulation of Tc-MIBI (FIG. 4)
Type: cell-based
Conditions: n=3-4
Protocol: FIG. 4. […] Preparations were incubated for the times indicated in 5.4 mM Ko control loading buffer containing tracer Tc-MIBI and TPB together (Δ) or in loading buffer containing Tc-MIBI alone (.quadrature.). For the latter incubation, TPB was added to the loading buffer at the arrow and cell content of Tc-MIBI subsequently determined (o). Under each condition, CCCP was added to the loading buffers as indicated by the arrows and cell content of Tc-MIBI determined ( , , ·). Each point is the mean ±SEM of 3 determinations.
Monolayers of spontaneously contractile chick ventricular myocardial cells were obtained from disaggregated 10-day old chick embryo hearts by a slight modification of previously published methods (Horres, C. R., et al., In Pinson, A. (ed.), The Heart Cell in Culture, Boca Raton, CRC Press, pp. 77-108 (1987)). Hearts were trimmed of connective tissue and atria, finely minced and serially exposed to 0.024% (w/v) trypsin in Ca^2+ - and Mg^2+ - free Earle's salt solution for 7 minutes at 37° C. Gentle trituration and agitation on an orbital shaker bath aided disaggregation. Cells released from the first exposure were discarded and cells aspirated from the next four exposures were then added to an equal volume of trypsin deactivating solution consisting of ice-cold culture medium. Cells were centrifuged at 400 g for 10 minutes, resuspended and combined in culture medium, counted with a hemocytometer and diluted to yield a suspension of 5×10^5 cells/ml. 12 ml of suspension were incubated in 100 mm plastic culture dishes containing 7 coverslips (25 mm diameter) placed on the bottom of each dish to serve as substrate for cell growth. Cells were maintained in a humidified atmosphere of 5% CO2 /95% air for 3-4 days yielding a confluent layer of spontaneously contractile myocytes on each coverslip.
Radioactive uptake methods have been described in detail (Piwnica-Worms, D., et al, Circ. (in press). Briefly, coverslips with confluent cells were removed from culture media and pre-equilibrated for 40-60 seconds in MEBSS buffer. Uptake and retention experiments were initiated by immersion of coverslips in 60 mm glass Pyrex dishes containing loading solution consisting of buffer with 0.1-0.6 nM [^99m Tc-MIBI] (0.01-0.4 Ci/nmole; 25-100 uCi/ml). Preparations were removed at various times and rinsed three times in 25 ml volumes of ice-cold (2° C.) isotope-free buffer for 8 seconds each to clear extracellular spaces. Preparations and aliquots of the loading buffer and stock solutions were counted in a well-type sodium iodide gamma counter after which cell protein on each coverslip was extracted in 1% sodium dodecylsulfate with 10 mM sodium borate and assayed by the method of Lowry (Lowry, O. H., et al., J. Biol. Chem. 193:265-275 (1951)). Tc-MIBI binding to glass coverslips without cells was used as an estimate of non-specific adhesion to the substrate ([…] obtained with cellular preparations); this value was subtracted from total uptake determinations to derive the cell-associated counts. Use of generator equilibrium equations (Lamson, M. L., et al., i J. Nucl. Med. 16:639-641 (1975)) allowed calculation of absolute moles of Tc-MIBI in solutions and preparations. Results were therefore expressed as fmol cellular Tc-MIBI/mg protein per nM extracellular Tc-MIBI concentration. […]

[C-]#[N+]CC(C)(C)OC.[C-]#[N+]CC(C)(C)OC.[C-]#[N+]CC(C)(C)OC.[C-]#[N+]CC(C)(C)OC.[C-]#[N+]CC(C)(C)OC.[C-]#[N+]CC(C)(C)OC.[Tc] [Tc-MIBI, hexakis(methoxyisobutylisonitrile)technetium(I)]
Tc-MIBI 2 min uptake (+5×10^-6 M TPB, 5 seconds pre-incubation): 20.6±0.43 fmol Tc-MIBI/mg protein per nM
Tc-MIBI 2 min uptake (+10^-7 M TPB, 5 seconds pre-incubation): 3.37±0.57 fmol Tc-MIBI/mg protein per nM
Tc-MIBI 2 min uptake (control (no TPB)): 1.23±0.15 fmol Tc-MIBI/mg protein per nM
